Measurements reported in patent US5665515A, “Method for obtaining a printing plate according to the silver salt diffusion transfer process” (Agfa-Gevaert N.V., priority 1994, dated 1997).

Experiment: pKa of the mercapto group by titration with hydrochloric acid in water
Type: physicochemical
Settings: 0.002 mole/liter, dissolved at pH 11, titrated with 0.1 mole/liter hydrochloric acid
Protocol: The pKa of the mercapto-compounds in connection with the present invention were determined according to the method described in "Ionization Constants of Acids and Bases--A Laboratory Manual" written by Adrien Albert and E. P. Serjeant and Edited by John Wiley & Sons (New York) page 110-112 (1962).
In these particular cases, the compounds were dissolved in water at pH 11. The concentration of the compounds was 0.002 mole/liter and the mixture was then titrated with a solution of hydrochloric acid (0.1 mole/liter).

Compound	pKa
CCCCN(CCCC)C(=O)Cn1nnnc1S [compound 2]	3.3
CCCCCCCCn1nnnc1S [compound 4]	3.4
CCCCn1nnnc1S [compound 5]	3.2
Sc1nnnn1-c1ccccc1 [compound 6]	3.1
